Measurements taken from patent US20240186515A1, “ELECTROLYTE SOLUTION FOR REDOX FLOW BATTERY INCLUDING ORGANIC ACTIVE MATERIAL AND REDOX FLOW BATTERY USING THE SAME” (priority 2022, published 2024).

Assay: Cyclic voltammetry of electrolyte solution
Assay type: physicochemical
Details: for Number of reaction electrons: reversibly usable electrons
From the text: For analysis of electrochemical properties of an electrolyte solution, cyclic voltammetry (CV) was used. The cyclic voltammetry is an electrochemical measurement method which is commonly used a lot, and is a method of obtaining a current-potential curve by scanning an electrode potential of a working electrode with a triangular wave at a constant speed. A method of recording a current flowing when potential is changed in proportion to time as a potential-current curve is called a potential sweep method, and when the potential is repeatedly applied, it is called cyclic voltammetry. The cyclic voltammetry allows qualitative understanding of a reaction occurring on an electrode surface such as potential at the reaction occurs, reaction speed, and reactivity of a reaction product, and is widely used in the electrochemical field.
During cyclic voltammetry measurement, a potential scanning speed was applied at 10 to 300 mV/s, and the measurement results are shown in FIGS. 1 to 3.

[1] = 0.01 M in 1 M Na2SO4, glassy carbon working electrode

C[n+]1ccc(-c2cc[n+](C)cc2)cc1.O.[Cl-].[Cl-] [Comparative Example 1, methyl viologen dichloride hydrate]
Negative electrode one-electron reaction potential [1]: −0.54 V vs. NHE | Reduction and oxidation currents, negative electrode area, first electron reaction (FIG. 1, text): around −0.54 V | Reduction and oxidation currents, negative electrode area, second electron reaction (FIG. 1, text): ~−0.75 V | Reversibility of second electron (two-electron) reaction in negative electrode area (cyclic voltammetry curves): irreversible

C[n+]1ccc(-c2cc[n+](-c3cc(O)ccc3O)cc2)cc1 [Comparative Example 2]
Negative electrode one-electron reaction potential [1]: −0.34 V vs. NHE | Positive electrode reaction potential [1]: 0.59 V vs. NHE | Reduction and oxidation currents, negative electrode area, first electron reaction (FIG. 1, text): around −0.34 V | Reduction and oxidation currents, negative electrode area, second electron reaction (FIG. 1, text): ~−0.65 V | Two-electron reduction and oxidation currents derived from hydroquinone, positive electrode area (FIG. 1, text): 0.59 V | Reversibility of second electron (two-electron) reaction in negative electrode area (cyclic voltammetry curves): did not reach a target level | Number of reaction electrons: 1

C[N+](C)(C)CCC[n+]1ccc(-c2cc[n+](-c3cc(O)ccc3O)cc2)cc1 [Example 1]
Negative electrode one-electron reaction potential [1]: −0.48 V vs. NHE | Negative electrode two-electron reaction potential [1]: −0.80 V vs. NHE | Positive electrode reaction potential [1]: 0.46 V vs. NHE | Reversibility of second electron (two-electron) reaction in negative electrode area (cyclic voltammetry curves): showed a reversible shape | Reversibility in positive electrode area (cyclic voltammetry curves, 100 mV s^−1, FIG. 3): reversible behavior was shown | Number of reaction electrons: 2
